The text below walks through data of US20160251350A1, “CRYSTALLINE FORMS OF A PYRROLOPYRIDINE COMPOUND” (Genentech, Inc., priority 2015, published 2016).

Molecules are shown by their SMILES. ≈ marks a conversion by molar mass, not a printed value.

Data set [1] in a line: Hygroscopicity / water re-absorption at controlled relative humidity (DVS). The data set is classed as physicochemical. The text has this: The present invention is directed, inter alia, to crystalline forms of (R)—N-(4-(3-aminopiperidin-1-yl)-5-bromo-1H-pyrrolo[2,3-b]pyridin-3-yl)cyclopropanecarboxamide and salts, hydrates, and solvates thereof. The crystalline forms of the present invention can be identified by unique solid state signatures with respect to, for example, differential scanning calorimetry (DSC), X-ray powder diffraction (XRPD), and other solid state methods. Further characterization with respect to water or solvent content of the crystalline forms of the present invention can be gauged by any of the following methods for example, thermogravimetric analysis (TGA), DSC and the like. For DSC, it is known that the temperatures observed will depend upon sample purity, the rate of temperature change, as well as sample preparation technique and the particular instrument employed. Thus, the values reported herein relating to DSC thermograms can vary by about ±6° C. For desolvation events, DSC thermograms may vary by more than ±6° C. depending on instrument configuration and/or sample quantity. The values reported herein relating to DSC thermograms can also vary by about ±20 joules per gram. For XRPD, the relative intensities of the peaks can vary, depending upon the sample preparation technique, the sample mounting procedure and the particular instrument employed. Moreover, instrument variation and other factors can often affect the 2θ values. Therefore, the peak assignments of diffraction patterns can vary by about ±0.2 ° 2θ. The relative intensities of the reported peaks can also vary. For TGA, the features reported herein can vary by about ±5° C. The TGA features reported herein can also vary by about ±2% weight change due to, for example, sample variation. Further characterization with respect to hygroscopicity of the crystalline form can be gauged by, for example, dynamic vapor sorption (DVS). The DVS features reported herein can vary by about ±5% relative humidity. The DVS features reported herein can also vary by about ±5% weight change.
(R)—N-(4-(3-aminopiperidin-1-yl)-5-bromo-1H-pyrrolo[2,3-b]pyridin-3-yl)cyclopropanecarboxamide di-ethane sulfonic acid salt: (R)—N-(4-(3-aminopiperidin-1-yl)-5-bromo-1H-pyrrolo[2,3-b]pyridin-3-yl)cyclopropanecarboxamide di-ethanesulfonic acid salt hydrate was heated to 130° C. in a DSC apparatus and then cooled to room temperature. […] The physical properties of the non-solvated di-esylate salt of (R)—N-(4-(3-aminopiperidin-1-yl)-5-bromo-1H-pyrrolo[2,3-b]pyridin-3-yl)cyclopropanecarboxamide are summarized in Table 50 below.

A short description of another data set: Aqueous solubility. The data set is classed as physicochemical.
The nature of data set [2]: Neat powder stability under ambient (25° C./60% RH) and accelerated (40° C./75% RH) conditions. The class given is physicochemical. How it is done: (§1) Chemical characteristics of (R)—N-(4-(3-aminopiperidin-1-yl)-5-bromo-1H-pyrrolo[2,3-b]pyridin-3-yl)cyclopropanecarboxamide free base (Form A) and maleate salt crystal forms: The stability of the crystal forms described in Examples 4 and 27 was measured neat as well as in a Powder-in-Capsule (PiC) formulation. The stability as neat powder was measured over a period of 1-year for the free base and 3-months for the maleate salt, under ambient (25° C./60% RH) and accelerated (40° C./75% RH) conditions. […] It should be noted that the maleate salt used in the neat powder stability study contained high levels (˜9% wt./wt.) of residual tetrahydrofuran (THF). The PiC stability using 15 mg of (R)—N-(4-(3-aminopiperidin-1-yl)-5-bromo-1H-pyrrolo[2,3-b]pyridin-3-yl)cyclopropanecarboxamide in Size 0 hard gelatin capsules was carried out over a period of 2-months at 5° C., ambient and accelerated conditions.

A short description of data set [3]: Powder-in-Capsule (PiC) formulation stability. The class given is physicochemical. Conditions: 15 mg in Size 0 hard gelatin capsules, 2-months at 5° C., ambient and accelerated conditions. How it is done:
as §1

Data set [4] can be described thus: Abbreviated excipient compatibility study at 50° C. with 20% H2O added. Conditions: 4 weeks, common diluents and disintegrants. The class given is physicochemical. How it is done:
To further investigate the chemical properties of these crystal forms, an abbreviated excipient compatibility study was run at 50° C. with 20% H2O added. The excipients used in the study consisted of common diluents and disintegrants and the study was conducted over a period of 4 weeks.

A short description of data set [5]: Oral absorption of PiC formulations versus solution, preclinical pharmacokinetic study. The class given is in vivo. The following applies: canines, 3 mg/kg, crossover. The protocol:
Biological characteristics of (R)—N-(4-(3-aminopiperidin-1-yl)-5-bromo-1H-pyrrolo[2,3-b]pyridin-3-yl)cyclopropanecarboxamide free base (Form A) and maleate salt crystal forms: The oral absorption of the crystal forms described in Examples 4 and 27 as PiC formulations was investigated in a preclinical pharmacokinetic study conducted in canines using a reduced Latin square crossover design at 3 mg/kg to compare the solid formulations to a solution of (R)—N-(4-(3-aminopiperidin-1-yl)-5-bromo-1H-pyrrolo[2,3-b]pyridin-3-yl)cyclopropanecarboxamide.

With `Cl.Cl.N[C@@H]1CCCN(c2c(Br)cnc3[nH]cc(NC(=O)C4CC4)c23)C1` [Example 29, (R)—N-(4-(3-aminopiperidin-1-yl)-5-bromo-1H-pyrrolo[2,3-b]pyridin-3-yl)cyclopropanecarboxamide di-HCl salt], the DVS form conversion result in data set [1] (above 80% RH) was “dihydrate form above 80% RH”. Further, the DVS hygroscopicity result in data set [1] (below 80% RH) is listed as “Non-hygroscopic below 80% RH. Converts to a crystalline”.

On to `N[C@@H]1CCCN(c2c(Br)cnc3[nH]cc(NC(=O)C4CC4)c23)C1.O=C(O)/C=C\C(=O)O` [maleate salt, Maleic acid salt of (R)—N-(4-(3-aminopiperidin-1-yl)-5-bromo-1H-pyrrolo[2,3-b]pyridin-3-yl)cyclopropanecarboxamide], for which, in the data set “Aqueous solubility” (at pH ≦7), the “Aqueous Solubility” value is above 10 at pH ≦7 mg/mL. The “Stability as neat powder” value in data set [2] (3-months, ambient and accelerated conditions, material contained ~9% wt./wt. residual THF) was “very slight degradation under accelerated conditions”. The PiC stability entry in data set [3] is reported as “stable”. Further, in data set [4], the Degradation with excipients entry is on record as “significant degradation with all excipients investigated”. For the same compound, the Oral absorption entry in data set [5] is on record as “no significant differences in absorption”. Moreover, in data set [1] (at 80% RH), the DVS hygroscopicity entry is given as “Non-hygroscopic” and the DVS weight gain stood at 0.3 % wt./wt.

As for `Br.Br.N[C@@H]1CCCN(c2c(Br)cnc3[nH]cc(NC(=O)C4CC4)c23)C1` [Example 30, (R)—N-(4-(3-aminopiperidin-1-yl)-5-bromo-1H-pyrrolo[2,3-b]pyridin-3-yl)cyclopropanecarboxamide di-HBr salt], in data set [1] (below 80% RH), the DVS hygroscopicity entry is reported as “Non-hygroscopic below 80% RH. Upon desorption the solids”.

As a reminder, the solubility is the dissolved amount per volume that the medium holds. The low end stands for a poorly soluble substance, the high end for a readily soluble substance. Take `N[C@@H]1CCCN(c2c(Br)cnc3[nH]cc(NC(=O)C4CC4)c23)C1` [Form A, (R)—N-(4-(3-aminopiperidin-1-yl)-5-bromo-1H-pyrrolo[2,3-b]pyridin-3-yl)cyclopropanecarboxamide Form A]: the solubility in the data set “Aqueous solubility” (0.1N HCl, simulated gastric fluid) is 49900 µg/mL (≈ 132 mM); in “Aqueous solubility” (FasSIF pH 6.8) it was 2400 µg/mL (≈ 6.34 mM); in “Aqueous solubility” (fessif, FedSIF pH 5), 10200 µg/mL (≈ 27 mM); in “Aqueous solubility” (water, H2O), 120 µg/mL (≈ 0.317 mM). For the same compound, the “Stability as neat powder” value in data set [2] (1-year, ambient (25° C./60% RH) and accelerated (40° C./75% RH)) was “very good stability with no chiral or achiral degradation observed under any condition”. Besides, the PiC stability result in data set [3] is listed as “did not cause any significant physical or chemical degradation”. Moreover, the Degradation with excipients result is “significant degradation with lactose and Ac-Di-Sol® (croscarmellose sodium)” in data set [4] (listed as free base); “more stable with excipients than the maleate salt” in data set [4] (listed as free base Form A). The Oral absorption result in data set [5] was “no significant differences in absorption”.

For `CCS(=O)(=O)O.CCS(=O)(=O)O.N[C@@H]1CCCN(c2c(Br)cnc3[nH]cc(NC(=O)C4CC4)c23)C1` [anhydrate, (R)—N-(4-(3-aminopiperidin-1-yl)-5-bromo-1H-pyrrolo[2,3-b]pyridin-3-yl)cyclopropanecarboxamide di-ethane sulfonic acid salt], the Water re-absorption entry in data set [1] (80% RH) is “re-absorbs water at 80% RH”.
